According to patent US20100068150A1, “Selective Caspase Inhibitors” (The Board of Trustees of the Leland Stanford Junior …, priority 2006, published 2010):

Assays:
Format in all cases: biochemical
Caspase-9 = molecular target: T1, Caspase-9 (Homo sapiens, UniProt P55211); test: Kinetic compound screening, progress curve method, caspase-9; settings: NI = no inhibition at concentrations tested; for Ki(app) Caspase-9: Table III, Ki(app) = Kass or Kobs/I, 50 nM active caspase-9; for Caspase-9 Ki (app): Table IV
T1 sequence (P55211 1-416): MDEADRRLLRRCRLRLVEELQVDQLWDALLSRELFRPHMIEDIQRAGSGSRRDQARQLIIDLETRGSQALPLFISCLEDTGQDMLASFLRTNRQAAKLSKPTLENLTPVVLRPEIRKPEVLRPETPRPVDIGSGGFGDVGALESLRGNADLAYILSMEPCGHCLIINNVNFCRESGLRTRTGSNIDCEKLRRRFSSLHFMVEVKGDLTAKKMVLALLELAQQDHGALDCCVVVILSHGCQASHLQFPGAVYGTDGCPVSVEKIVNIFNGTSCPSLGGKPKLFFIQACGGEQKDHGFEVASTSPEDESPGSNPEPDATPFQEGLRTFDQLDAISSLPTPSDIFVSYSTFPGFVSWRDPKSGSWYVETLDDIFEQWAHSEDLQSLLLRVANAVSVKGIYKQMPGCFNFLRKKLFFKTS
From the text: (§1) Table III below presents Ki(app) values for select AB compounds. Ki(app) values (also called Kass or Kobs/I) represent the speed of inhibitor binding to a target enzyme. Units are [M^−1s^−1]. NI indicates no inhibition at concentrations tested. Parent compounds AB09, ABo8, and AB07 that include the optimal substrate specificity sequences for caspases-3, […] as determined by Thornberry and colleagues (Thornberry et al., 19970 are included between double lines.
(§2) The inhibitors AB07 (NP-LEHD-AOMK, caspase-9), AB08 (NP-LETD-AOMK, caspase-8), and AB09 (NP-DEVD-AOMK, caspase-3) were synthesized and kinetic inhibition constants (Kiapp) were obtained for all compounds for caspases 3, 7, 8 and 9 using the progress curve method for pseudo-first order reactions kinetics (Salvesen, 1989) (structures shown in Table I). […] Ki(app) values (also called Kass or Kobs/I) represent the speed of inhibitor binding to a target enzyme. Units are [M-1s-1]. NI indicates no inhibition at concentrations tested, ND indicates data not determined, SD indicates standard deviation.
(§3) Compound screening was completed using the progress curve method as described (Salvesen, 1989). All screening was carried out in caspase reaction buffer. The caspase-9 specific compounds AB38, 40, 41 and 42 were screened in caspase reaction buffer and in caspase buffer with 1M sodium citrate instead of sucrose as described (Pop, 2006) The concentrations of active caspases used is as follows: 5 nM active caspase-3, 5 nM active caspase-7, 10 nM active caspase-8, and 50 nM active caspase-9. To ensure full activation, caspases 3/7, 8 and 9 were preincubated at 37° C. for 5, 10, or 40 minutes respectively before kinetic measurements were made.

Caspase-7 = molecular target: T2, Caspase-7 (Homo sapiens, UniProt P55210); test: Kinetic compound screening, progress curve method, caspase-7; settings: for Ki(app) Caspase-7: Table III, Ki(app) = Kass or Kobs/I, 5 nM active caspase-7; for Caspase-7 Ki (app): Table IV
T2 sequence (P55210 1-303): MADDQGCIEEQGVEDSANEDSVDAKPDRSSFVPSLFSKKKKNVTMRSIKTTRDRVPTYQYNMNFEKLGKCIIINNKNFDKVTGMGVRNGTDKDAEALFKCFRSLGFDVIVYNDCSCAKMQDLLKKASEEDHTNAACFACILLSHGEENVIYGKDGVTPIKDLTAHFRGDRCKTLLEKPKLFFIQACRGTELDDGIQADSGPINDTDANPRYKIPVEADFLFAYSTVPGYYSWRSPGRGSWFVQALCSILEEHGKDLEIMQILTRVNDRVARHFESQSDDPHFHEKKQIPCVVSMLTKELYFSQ
From the text: as §1, §2, §3

Caspase-8 = Caspase-8 (Homo sapiens, UniProt Q14790); test: Kinetic compound screening, progress curve method, caspase-8; settings: for Ki(app) Caspase-8: Table III, Ki(app) = Kass or Kobs/I, 10 nM active caspase-8; for Caspase-8 Ki (app): Table IV, NI = no inhibition at concentrations tested
From the text: as §1, §2, §3

[1] = tested on: recombinant caspases-3, 7, 8 and 9; test: Indirect competition with general probe KMB01 on individual recombinant caspases; settings: 100 nM caspase, inhibitor 30 min, then 5 μM KMB01 30 min; range of concentrations
Protocol: (a.) Indirect competition of a panel of inhibitors with the general caspase probe KMB01. Individual caspases-3, 7, 8 and 9 (100 nM each) were incubated with the indicated inhibitors for 30 minutes followed by a 30 minute incubation with KMB01. Samples were analyzed by SDS-PAGE and residual active site labeling was visualized by biotin blotting using streptavidin-HRP. (b.) Direct labeling of caspase active sites using specific ABPs. Equal amounts of active caspaseses-3, 8, and 9 ([…]) were incubated together with increasing concentrations of each of the indicated biotinylated active site probes for 30 minutes. Active site labeling was visualized by SDS-PAGE analysis followed by biotin blotting using streptavidin HRP. (*) Indicates labeling of the full-length form of caspase-3 that is only observed using recombinant enzyme preparations.
We initially focused on recombinant caspase3, 7, 8, and 9. Each caspase was individually pre-incubated with our optimal series of selective inhibitors at a range of concentrations and residual activity was measured by addition of the general caspase probe KMB01. Overall, the competition data mirrored the kinetic data with caspase-3 and 8-specific compounds showing specific competition of the desired target.
This was shown by analysis of inhibitor and probe selectivity by indirect competition and direct labeling of recombinant caspases. Indirect competition of a panel of inhibitors with the general caspase probe KMB01 was carried out with individual caspases-3, 7, 8 and 9 (100 nM each), which were incubated with the specific inhibitors for 30 minutes followed by a 30-minute incubation with KMB01. Samples were analyzed by SDS-PAGE and residual active site labeling was visualized by biotin blotting using streptavidin-HRP. Also, the direct labeling of caspase active sites was carried out using specific ABPs. Equal amounts of active caspaseses-3, 8, and 9 ([…]) were incubated together with increasing concentrations of each of the indicated biotinylated active site probes for 30 minutes. Active site labeling was visualized by SDS-PAGE analysis followed by biotin blotting using streptavidin HRP.
For all competition and direct labeling experiments recombinant caspases were pre-incubated in caspase reaction buffer for 15 minutes at 37° C. For competition experiments, 100 nM of active site titrated caspase was incubated for 30 minutes at 37° C. with appropriate inhibitor and then residual active sites were labeled with 5 μM KMB01 for an additional 30 minutes. For direct labeling, 100 nM caspase-3, 8, and 9 were incubated together in the presence of appropriate ABPs at the indicated concentrations for 30 min at 37° C.

Caspase-3 = molecular target: T3, Caspase-3 (Homo sapiens, UniProt P42574); test: Kinetic compound screening, progress curve method, caspase-3; settings: for Ki(app) Caspase-3: Table III, Ki(app) = Kass or Kobs/I, 5 nM active caspase-3; for Caspase-3 Ki(app): Table IV
T3 sequence (P42574 29-175 limits assumed): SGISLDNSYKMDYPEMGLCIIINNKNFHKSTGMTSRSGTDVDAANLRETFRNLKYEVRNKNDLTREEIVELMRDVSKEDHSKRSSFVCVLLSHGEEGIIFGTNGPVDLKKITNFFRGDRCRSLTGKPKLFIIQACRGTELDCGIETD
T3 sequence (P42574 176-277 limits assumed): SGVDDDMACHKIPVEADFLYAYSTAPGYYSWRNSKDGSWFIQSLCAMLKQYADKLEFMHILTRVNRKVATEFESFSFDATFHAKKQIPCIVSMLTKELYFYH
From the text: as §1, §2, §3

Caspase-8, sequence (Q14790 217-479): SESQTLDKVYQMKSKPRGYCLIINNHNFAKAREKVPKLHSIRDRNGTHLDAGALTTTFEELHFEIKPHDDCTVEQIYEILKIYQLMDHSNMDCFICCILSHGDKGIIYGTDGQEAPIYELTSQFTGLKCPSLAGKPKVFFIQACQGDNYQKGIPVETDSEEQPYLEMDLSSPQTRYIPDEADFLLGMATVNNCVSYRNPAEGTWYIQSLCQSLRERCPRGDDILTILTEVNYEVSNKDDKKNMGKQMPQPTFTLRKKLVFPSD

Compound	Ki(app) Caspase-9 (Caspase-9)	Caspase-9 Ki (app) (Caspase-9)	Ki(app) Caspase-7 (Caspase-7)	Caspase-7 Ki (app) (Caspase-7)	Ki(app) Caspase-8 (Caspase-8)	Caspase-8 Ki (app) (Caspase-8)	competition for KMB01 labeling of recombinant caspases [1]	Ki(app) Caspase-3 (Caspase-3)	Caspase-3 Ki(app) (Caspase-3)
Cc1cccc(C)c1C(=O)OCC(=O)[C@H](CC(=O)O)NC(=O)[C@H](C)NC(=O)[C@H](CC(C)C)NC(=O)C1CCCN1C(=O)Cc1ccc([N+](=O)[O-])c(O)c1 (stereo partly drawn) [AB38, Np-P-L- A-D-AOMK]	18,004 M^−1s^−1	18,004 M-1s-1	27,814 M^−1s^−1	27,814 M-1s-1	19,676 M^−1s^−1	19,676 M-1s-1	minimal degree of selectivity for caspase-9 over caspase-8	46,108 M^−1s^−1	46,108 M-1s-1
CC[C@H](NC(=O)[C@@H](CCC(=O)O)NC(=O)c1ccccc1N)C(=O)N[C@@H](CC(=O)O)C(=O)COC(=O)c1c(C)cccc1C [AB28, NH2-6-E-8-D-DMBA]	300,767 M^−1s^−1	300,767 M-1s-1	272,619 M^−1s^−1	272,619 M-1s-1	817,077 M^−1s^−1	817,077 M-1s-1	blocked labeling of all four caspases targets	1,020,213 M^−1s^−1	1,020,213 M-1s-1
Cc1cccc(C)c1C(=O)OCC(=O)[C@H](CC(=O)O)NC(=O)[C@@H](NC(=O)[C@H](CCC(=O)O)NC(=O)[C@H](CC(C)C)NC(=O)Cc1ccc(O)c([N+](=O)[O-])c1)C(C)O (stereo partly drawn) [AB08, Np-L-E- T-D-DMBA]	<5,000 M^−1s^−1	<5,000 M-1s-1	19,424 M^−1s^−1	19,424 M-1s-1	599,788 M^−1s^−1	599,788 M-1s-1		127,835 M^−1s^−1	127,835 M-1s-1
CCC(C)C(NC(=O)Cc1ccc(O)c([N+](=O)[O-])c1)C(=O)NC(Cc1ccccc1)C(=O)N1CCCC1C(=O)N[C@@H](CC(=O)O)C(=O)COC(=O)c1c(C)cccc1C (stereo partly drawn) [AB42, NP-I-F- P-D-AOMK]	44,709 M^−1s^−1	44,709 M-1s-1	42,594 M^−1s^−1	42,594 M-1s-1	22,544 M^−1s^−1	22,544 M-1s-1	minimal degree of selectivity for caspase-9 over caspase-8	892,045 M^−1s^−1	892,045 M-1s-1
CCC(C)C(NC(=O)Cc1ccc(O)c([N+](=O)[O-])c1)C(=O)N[C@@H](CC(C)C)C(=O)N1CSCC1C(=O)N[C@@H](CC(=O)O)C(=O)COC(=O)c1c(C)cccc1C (stereo partly drawn) [AB41, Np-I-L-38-D-AOMK]	35,779 M^−1s^−1	35,779 M-1s-1	69,317 M^−1s^−1	69,317 M-1s-1	49,815 M^−1s^−1	49,815 M-1s-1	no specific inhibition	1,582,350 M^−1s^−1	1,582,350 M-1s-1
CCC(C)C(NC(=O)Cc1ccc(O)c([N+](=O)[O-])c1)C(=O)N[C@@H](CC(C)C)C(=O)N[C@@H](C)C(=O)N[C@@H](CC(=O)O)C(=O)COC(=O)c1c(C)cccc1C (stereo partly drawn) [AB40, Np-I-L- A-D-AOMK]	48,867 M^−1s^−1	48,867 M-1s-1	11,256 M^−1s^−1	11,256 M-1s-1	35,174 M^−1s^−1	35,174 M-1s-1	no specific inhibition	261,470 M^−1s^−1	261,470 M-1s-1
Cc1cccc(C)c1C(=O)OCC(=O)[C@H](CC(=O)O)NC(=O)[C@@H](NC(=O)[C@H](CCC(=O)O)NC(=O)[C@H](Cc1ccc(I)cc1)NC(=O)Cc1ccc(O)c([N+](=O)[O-])c1)C(C)O (stereo partly drawn) [AB18, NP-31-E-T-D-DMBA]	12,320 M^−1s^−1	12,320 M-1s-1	234,945 M^−1s^−1	234,945 M-1s-1	572,012 M^−1s^−1	572,012 M-1s-1		216,040 M^−1s^−1	216,040 M-1s-1
